According to US20220119354A1, “DIAMINO-SUBSTITUTED PYRIDINES AND PYRIMIDINES AS HERBICIDES” (FMC Corporation, priority 2019, published 2022):

Key:
Assay type in all cases: in vivo
[1] = system: barnyardgrass (Echinochloa crus-galli); assay: Test A postemergence, barnyardgrass; conditions: 0 to 100 scale
Summary of the method: (§1)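 Greenhouse test; plants at one- to two-leaf stage (2–10 cm) sprayed postemergence with compound in non-phytotoxic solvent/surfactant mix, or soil sprayed preemergence after seeding in loam–sand blend. Injury rated visually versus untreated controls after about 10 d, 0 (no effect) to 100 (complete control).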

[2] = system: barnyardgrass (Echinochloa crus-galli); assay: Test B flooded paddy test, barnyardgrass; conditions: Flood, 250 g ai/ha, applied to paddy water, 2-leaf stage, visual evaluation after 13 to 15 d
Summary of the method: (§2)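 Each response is a visual 0–100 rating made against untreated controls, where 0 is no effect and 100 is complete control; a dash marks no result. Compound was dosed into 3 cm paddy water over 2-leaf plants, assessed after 13 to 15 d.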

[3] = system: kochia (Kochia scoparia); assay: Test A postemergence, kochia; conditions: 0 to 100 scale
Summary of the method: as §1

[4] = system: ryegrass, Italian (Lolium multiflorum); assay: Test A postemergence, Italian ryegrass; conditions: 0 to 100 scale
Summary of the method: as §1

[5] = system: galium (catchweed bedstraw, Galium aparine); assay: Test A postemergence, galium; conditions: 0 to 100 scale
Summary of the method: as §1

[6] = system: kochia (Kochia scoparia); assay: Test A preemergence, kochia; conditions: 0 to 100 scale; for Kochia plant response rating: 125 g ai/ha, 0 is no effect, 100 is complete control; for Plant response rating, Kochia: 500 g ai/ha
Summary of the method: as §1

[7] = system: wheat (Triticum aestivum); assay: Test A postemergence, wheat; conditions: 0 to 100 scale
Summary of the method: as §1

[8] = system: ducksalad (Heteranthera limosa); assay: Test B flooded paddy test, ducksalad; conditions: Flood, 250 g ai/ha, applied to paddy water, 2-leaf stage, visual evaluation after 13 to 15 d
Summary of the method: as §2

[9] = system: foxtail, giant (Setaria faberii); assay: Test A preemergence, giant foxtail; conditions: 0 to 100 scale; for Foxtail, Giant plant response rating: 125 g ai/ha, 0 is no effect, 100 is complete control; for Plant response rating, Foxtail, Giant: 500 g ai/ha
Summary of the method: as §1

[10] = system: ryegrass, Italian (Lolium multiflorum); assay: Test A preemergence, Italian ryegrass; conditions: 0 to 100 scale; for Ryegrass, Italian plant response rating: 125 g ai/ha, 0 is no effect, 100 is complete control; for Plant response rating, Ryegrass, Italian: 500 g ai/ha
Summary of the method: as §1

[11] = system: pigweed (Amaranthus retroflexus); assay: Test A preemergence, pigweed; conditions: 0 to 100 scale; for Pigweed plant response rating: 125 g ai/ha, 0 is no effect, 100 is complete control; for Plant response rating, Pigweed: 500 g ai/ha
Summary of the method: as §1

[12] = system: blackgrass (Alopecurus myosuroides); assay: Test A postemergence, blackgrass; conditions: 0 to 100 scale
Summary of the method: as §1

[13] = system: foxtail, giant (Setaria faberii); assay: Test A postemergence, giant foxtail; conditions: 0 to 100 scale
Summary of the method: as §1

[14] = system: ragweed (common ragweed, Ambrosia elatior); assay: Test A preemergence, ragweed; conditions: 0 to 100 scale; for Ragweed plant response rating: 125 g ai/ha, 0 is no effect, 100 is complete control; for Plant response rating, Ragweed: 500 g ai/ha
Summary of the method: as §1

[15] = system: barnyardgrass (Echinochloa crus-galli); assay: Test A preemergence, barnyardgrass; conditions: 0 to 100 scale; for Barnyardgrass plant response rating: 125 g ai/ha, 0 is no effect, 100 is complete control; for Plant response rating, Barnyardgrass: 500 g ai/ha
Summary of the method: as §1

[16] = system: sedge, umbrella (small-flower umbrella sedge, Cyperus difformis); assay: Test B flooded paddy test, umbrella sedge; conditions: Flood, 250 g ai/ha, applied to paddy water, 2-leaf stage, visual evaluation after 13 to 15 d
Summary of the method: as §2

[17] = system: pigweed (Amaranthus retroflexus); assay: Test A postemergence, pigweed; conditions: 0 to 100 scale
Summary of the method: as §1

[18] = system: rice (Oryza sativa); assay: Test B flooded paddy test, rice; conditions: Flood, 250 g ai/ha, applied to paddy water, 2-leaf stage, visual evaluation after 13 to 15 d
Summary of the method: as §2

[19] = system: corn (Zea mays); assay: Test A postemergence, corn; conditions: 0 to 100 scale
Summary of the method: as §1

[20] = system: ragweed (common ragweed, Ambrosia elatior); assay: Test A postemergence, ragweed; conditions: 0 to 100 scale
Summary of the method: as §1

| SMILES | Plant response rating, Barnyardgrass ([1]; 125 g ai/ha) | Plant response rating, Barnyardgrass ([1]; 500 g ai/ha) | Plant response rating, Barnyardgrass (0 to 100 scale, 0 is no effect, 100 is complete control) [2] | Plant response rating, Kochia ([3]; 125 g ai/ha) | Plant response rating, Kochia ([3]; 500 g ai/ha) | Plant response rating, Ryegrass, Italian ([4]; 125 g ai/ha) | Plant response rating, Ryegrass, Italian ([4]; 500 g ai/ha) | Plant response rating, Galium ([5]; 125 g ai/ha) | Plant response rating, Galium ([5]; 500 g ai/ha) | Kochia plant response rating [6] | Plant response rating, Kochia [6] | Plant response rating, Wheat ([7]; 125 g ai/ha) | Plant response rating, Wheat ([7]; 500 g ai/ha) | Plant response rating, Ducksalad (0 to 100 scale, 0 is no effect, 100 is complete control) [8] | Foxtail, Giant plant response rating [9] | Plant response rating, Foxtail, Giant [9] | Ryegrass, Italian plant response rating [10] | Plant response rating, Ryegrass, Italian [10] | Pigweed plant response rating [11] | Plant response rating, Pigweed [11] | also measured |
| --- | --- | --- | --- | --- | --- | --- | --- | --- | --- | --- | --- | --- | --- | --- | --- | --- | --- | --- | --- | --- | --- |
| Cc1cccc(OCC(C)Nc2ncc(C(F)(F)F)c(N)n2)c1 (stereo not drawn) [Compound 32] | 0 | 20 | 0 | 20 | 60 | 0 | 0 | 60 | 70 | 0 | 30 | 0 | 0 | 0 | 20 | 80 | 0 | 0 | 10 | 60 | Plant response rating, Blackgrass ([12]; 125 g ai/ha): 0; Plant response rating, Blackgrass ([12]; 500 g ai/ha): 0; Plant response rating, Foxtail, Giant ([13]; 125 g ai/ha): 0; Plant response rating, Foxtail, Giant ([13]; 500 g ai/ha): 40; Ragweed plant response rating [14]: 0; Plant response rating, Ragweed [14]: 100; Barnyardgrass plant response rating [15]: 0; Plant response rating, Barnyardgrass [15]: 90; Plant response rating, Sedge, Umbrella (0 to 100 scale, 0 is no effect, 100 is complete control) [16]: 0; Plant response rating, Pigweed ([17]; 125 g ai/ha): 30; Plant response rating, Pigweed ([17]; 500 g ai/ha): 60; Plant response rating, Rice (0 to 100 scale, 0 is no effect, 100 is complete control) [18]: 0; Plant response rating, Corn ([19]; 125 g ai/ha): 0; Plant response rating, Corn ([19]; 500 g ai/ha): 0; Plant response rating, Ragweed ([20]; 125 g ai/ha): 0; Plant response rating, Ragweed ([20]; 500 g ai/ha): 40 |
| CC(COc1cc(F)cc(F)c1)Nc1ncc(C(F)(F)F)c(N)n1 (stereo not drawn) [Compound 33] | 0 | 0 | 0 | 0 | 30 | 0 | 0 | 20 | 60 | 0 | 30 | 0 | 0 | 70 | 0 | 30 | 0 | 0 | 20 | 50 | Plant response rating, Blackgrass ([12]; 125 g ai/ha): 0; Plant response rating, Blackgrass ([12]; 500 g ai/ha): 0; Plant response rating, Foxtail, Giant ([13]; 125 g ai/ha): 0; Plant response rating, Foxtail, Giant ([13]; 500 g ai/ha): 0; Ragweed plant response rating [14]: 0; Plant response rating, Ragweed [14]: 0; Barnyardgrass plant response rating [15]: 0; Plant response rating, Barnyardgrass [15]: 0; Plant response rating, Sedge, Umbrella (0 to 100 scale, 0 is no effect, 100 is complete control) [16]: 25; Plant response rating, Pigweed ([17]; 125 g ai/ha): 0; Plant response rating, Pigweed ([17]; 500 g ai/ha): 30; Plant response rating, Rice (0 to 100 scale, 0 is no effect, 100 is complete control) [18]: 0; Plant response rating, Corn ([19]; 125 g ai/ha): 0; Plant response rating, Corn ([19]; 500 g ai/ha): 0; Plant response rating, Ragweed ([20]; 125 g ai/ha): 0; Plant response rating, Ragweed ([20]; 500 g ai/ha): 0 |
